The record followed here is patent US20140105829A1, “THERAPEUTIC NANOEMULSION FORMULATION FOR THE TARGETED DELIVERY OF DOCETAXEL AND METHODS OF MAKING AND USING THE SAME” (Nemucore Medical Innovations, Inc., priority 2012, published 2014).

As usually defined, the IC50 is the concentration needed to halve the response being measured. What is called Cmax is the maximum level reached in the sampled fluid or tissue. By MRT is commonly meant a mean duration of stay, worked out from the concentration-time curve. Usually Tmax stands for the time from dosing to the highest level. In general, Vd refers to the apparent volume that relates the amount in the body to the concentration in plasma or blood. A lower Vd goes with little distribution into tissue.

Series [1] relates to subcutaneous SKOV3 tumors. Also noted: species or system Nu/Nu mice. The following applies: mouse, in vivo, iv. From the text:
Three female Nu/Nu mice (Charles River Laboratories, Cambridge, Mass.) each weighing approximately 20 g and bearing subcutaneous SKOV3 tumors (human ovary cancer cells, American Type Culture Collection (ATCC), Manassas, Va.) […], were used as test subjects. The first mouse was intravenously injected with gadopentetic acid containing a 0.072 mmol/kg dose of Gd-DTPA-PE (Magnevist™). The second mouse was intravenously injected with a non-targeted Gd-labeled nanoemulsion formulation of the present disclosure containing a 0.072 mmol/kg dose of Gd-DTPA-PE. The third mouse was intravenously injected with a folate receptor-targeted Gd-labeled nanoemulsion formulation of the present disclosure containing a 0.072 mmol/kg dose of the gadolinium-based MRI contrasting agent Gd-DTPA-PE. All three mice were full body scanned and imaged using a Bruker Biospec 20/70 MRI machine over a period of 24 hr.

A further series has as its system SKOV3 cells. The series is described as follows: MTT cytotoxicity assay, SKOV3. Format: cell-based, human. The following applies: 72 hr treatment, mean±SD, n=8. Here is the method: (§1) A tetrazolium (MTT) assay was performed, which measures the activity of cellular enzymes that reduces the MTT dye to insoluble formazan. SKOV3 and SKOV3TR cells were treated with corresponding test nanoemulsions or control solutions as indicated below in Table V. Polyethylenimine at 50 μg/ml was used as a positive control for cytotoxicity. […] After the completion of treatment, cells were incubated with MTT reagent (50 μg/well) for 2 hr, the resulting formazan crystals were dissolved in dimethyl sulfoxide ([…]) and measured at 570 nm in the Plate reader (Synergy HT, Biotek Instruments, Winooski, Vt.).
(§2) All IC50 values were obtained by analyzing the MTT assays results using Graphpad Prism 5 scientific data analysis software.
In general terms: Tetrazolium assays rely on reduction of a dye to a coloured formazan, in cell work by metabolically active cells.

For the next series, the system named is SKOV3TR cells. As to the kind of experiment: MTT cytotoxicity assay, SKOV3TR. Format: cell-based, human. The following applies: 72 hr treatment, mean±SD, n=8, Pgp-expressing multidrug resistant cells. Here is the method: In order to determine if the nanoemulsion formulations according to the disclosure produce a cytotoxic effect, the following experiments were done on SKOV3 and SKOV3TR cells. SKOV3TR cells express P-glycoprotein (Pgp), which produces chemotherapeutic agent efflux out of the cell and is associated with multidrug resistant cancer cells.
as §1, §2

Series [2] can be described thus: Dose range finding plasma pharmacokinetic study. The following applies: CD-1 mice, iv; for AUC0-∞ / AUClast / Cl / Cmax / MRT / Tmax / Vd / t1/2: plasma docetaxel. Format: in vivo. Here is the method:
A dose range finding (DRF) study was conducted to determine the pharmacokinetic profile of folate receptor-targeted nanoemulsion formulations according to the disclosure administered to CD-1 mice at dose levels ranging from 1 mg/kg to 10 mg/kg. […] Blood was collected at 5 min, 30 min, 1 hr, 2 hr, 4 hr, 6 hr, 8 hr, 12 hr, and 24 hr after injection. Docetaxel concentration in the plasma was measured using a liquid chromatography-mass spectrometer (LC-MS/MS).
Pharmacokinetic parameters were calculated by non-compartmental analysis using Phoenix WinNonlin 6.2 version.

The mark [3] stands for this setting: 1 mg/kg docetaxel as folate receptor-targeted nanoemulsion formulation.
Where [4] appears, read: 5 mg/kg docetaxel as folate receptor-targeted nanoemulsion formulation.
The mark [5] stands for this setting: 10 mg/kg docetaxel as folate receptor-targeted nanoemulsion formulation.

In the case of `CNC[C@H](O)[C@@H](O)[C@H](O)[C@H](O)CO.CNC[C@H](O)[C@@H](O)[C@H](O)[C@H](O)CO.O=C([O-])CN(CCN(CC(=O)[O-])CC(=O)O)CCN(CC(=O)[O-])CC(=O)O.[Gd+3]` [Magnevist, gadopentetic acid], in series [1], the “time by which tumor signal cleared to near baseline” value was ≤ 6 h.

Take docetaxel [Docetaxel in solution]: in the series on SKOV3 cells, the IC50 was 1 ± 1.3 nM. In addition, the IC50 in the series with SKOV3TR cells stood at 27000 nM. Besides, in series [2] (setting [3]), the “AUC0-∞” value stood at 475 ± 34 ng·h/mL, the “AUClast” value was found to be 789 ± 667 ng·h/mL, the “Cl” value came out at 35.17 ± 2.55 mL/min/kg and the “Cmax” value turned out to be 2125 ± 1181 ng/mL. In series [2] (setting [3]), the “MRT” value stood at 1.53 ± 0.3 h, the “Tmax” value worked out at 4.98 min, the “Vd” value was determined as 13.275 ± 7.029 L/kg and the “t1/2” value is listed as 4.29 ± 2 h. In addition, in series [2] (1 mg/kg to 10 mg/kg, folate receptor-targeted nanoemulsion formulation), the “dose dependence of plasma docetaxel pharmacokinetics” value is listed as “linear pharmacokinetics from 1 mg/kg to 5 mg/kg”. Moreover, in series [2] (setting [4]), the “AUC0-∞” value was determined as 19095 ± 24050 ng·h/mL, the “AUClast” value came to 19026 ± 24077 ng·h/mL, the “Cl” value came to 15.4 ± 16.77 mL/min/kg and the “Cmax” value is 38267 ± 31757 ng/mL. In series [2] (setting [4]), the “MRT” value came out at 2.25 ± 0.5 h, the “Tmax” value stood at 4.98 min, the “Vd” value was determined as 9.074 ± 12.083 L/kg and the “t1/2” value is 4.9 ± 2.6 h. Moreover, in series [2] (setting [5]), the “AUC0-∞” value was 16719 ± 28251 ng·h/mL, the “AUClast” value came out at 16653 ± 28251 ng·h/mL, the “Cl” value was determined as 16 ± 12.5 mL/min/kg and the highest concentration (Cmax) worked out at 52229 ± 28251 ng/mL. In series [2] (setting [5]), the “MRT” value is on record as 2.6 ± 1 h, the “Tmax” value turned out to be 4.98 min, the “Vd” value amounted to 5.801 ± 5.151 L/kg and the “t1/2” value worked out at 3.7 ± 1 h.
